How the values were obtained:
[1] = Plasma protein binding, Rapid Equilibrium Device, mouse plasma; type: in vitro ADME; conditions: mouse plasma (EDTA), diluted 1:1 with PBS, read-out: Plasma Protein Binding (% Bound) (converted)
Experimental: The extent of compound bound to plasma proteins was measured using the Rapid Equilibrium Device (Pierce Thermo Scientific, Rockford Ill.). The base plate was rinsed with […] followed by 2× washes with ultrapure water and allowed to dry. Human and mouse plasma (BioChemed Services, Winchester Va.) collected in EDTA was allowed to thaw at room temperature and then warmed to 37° C., and diluted 1:1 (v:v) with 1×PBS, pH 7.4, prior to the assay. The compound (1.0 and 10.0 μM final) was added to the chamber containing 300 μl plasma:PBS. Next, 500 μl of dialysis buffer (1×PBS, pH7.4) was added to the buffer chambers of the inserts. The chambers were covered with sealing tape and incubated at 37° C. on an orbital shaker at 300× rpm for 4 hours. […] Results reported are the mean of each reaction duplicate, normalized to the internal standard, and expressed as a percent compound bound after the incubation time. The amount of compound in the supernatant was determined by LC/MS/MS and the percent of free and bound compounds were calculated with the following formulas: Percent of free parent compound=(amount of compound in receiver chamber/amount of compound in donor chamber)*100.

[2] = Plasma stability, human plasma; type: in vitro ADME
Experimental: Plasma stability was determined using previously published methods (Kerns, E. H., and Di, L. 2008. Drug-like Properties: Concepts, Structure Design and Methods. Oxford UK: Elsevier). Compound (1.0 μM) was incubated at 37° C. in human or mouse plasma (from blood of healthy donors collected on EDTA) diluted to 50% (v/v) with pH 7.4 isotonic phosphate buffer. At time 0 min and 180 min, aliquots were collected, added to acetonitrile to quench the reaction and precipitate plasma proteins. These samples were centrifuged and the supernatant analyzed by the LC/MS/MS method described above for the presence of the parental compound.

[3] = Metabolic stability in human hepatic microsomes; type: in vitro ADME
Experimental: Hepatic metabolic stability was determined using established protocols (Di, L., Kerns, E. H., Hong, Y., Kleintop, T. A., McConnell, O. J., and Huryn, D. M. 2003. Optimization of a higher throughput microsomal stability screening assay for profiling drug discovery candidates. J Biomol Screen 8:453-462). Briefly, the compound (1.0 and 10.0 μM) was preincubated for 10 min at 37° C. in potassium phosphate buffer (pH 7.4) together with 0.5 mg/mL mouse or human hepatic microsomes (Xenotech, Kansas City). The cofactor mixture comprising NADP, G6P, and G6P-DH (BD Biosciences) was added, and aliquots were taken after 0 and 60 min. Samples were analyzed on an Acquity UPLC, coupled with a sample organizer, and interfaced with a triple quadrupole ABI 4000 LC/MS/MS using the methodology described above. The percentage of the compound remaining after a 60 min incubation period was calculated according the following equation: [(area at time 60 min)/(area at time 0 min)]×100%.

[4] = test system: adrenergic receptors (α1a, α1B, α1D, α2A); assay: Panlabs panel, adrenergic receptors; type: binding; conditions: @ 10 μM
Excerpt: However, these activities in in vitro binding assays may not translate into functional modulation of these receptors.

[5] = molecular target: NTR1 (Homo sapiens, UniProt P30989); assay: NTR1 Ca2+ Flux dose response (ChanTest, CHO); type: cell-based; design: host or cells: CHO; conditions: profiled by ChanTest
Experimental: The NTR1 Ca^2+ Flux assay was performed by ChanTest (Rockville, Md.). The assay used a CHO cell line, provided by ChanTest, which stably expressed the NTR1 receptor. The cells were grown and plated in Ham's F12 (11765) that was supplemented with fetal bovine serum (10437). Both were supplied by Gibco/Life Technologies (Carlsbad, Calif.). The DPBS (21-031CV) used in the assay was obtained from Cellgro/Mediatech and the G418 (ant-gn-1) was supplied by Invivogen. The Fluo-4 NW Dye (Invitrogen F36206) used to detect calcium mobilization was sourced by Invitrogen. […]
NTSR1 (NTR1) CHO cells are plated in 20 uL of assay media containing Ham's F12 supplemented with 10% fetal bovine serum and 0.4 mg/mL G418 at a concentration of 1.0×10^6 cells per mL into black, 384-well assay plates with clear bottoms using a Multidrop liquid handler. […] Following the incubation in the presence of dye, the assay is run on a Molecular Devices FlexStation-III using 494 excitation and 516 emission wavelengths set to read for 90 seconds with the addition at 18 seconds of 5 uL of 6× final concentration of test compounds and peptide control diluted in assay media containing 0.1% BSA and no more than 9% DMSO to yield a maximum final DMSO concentration of 1.5%. Percent activation is calculated based on the maximum response minus the minimum value over the time course relative to the neurotensin 1 control peptide at 100 pM. […]

Sequence of NTR1 (P30989 whole entry): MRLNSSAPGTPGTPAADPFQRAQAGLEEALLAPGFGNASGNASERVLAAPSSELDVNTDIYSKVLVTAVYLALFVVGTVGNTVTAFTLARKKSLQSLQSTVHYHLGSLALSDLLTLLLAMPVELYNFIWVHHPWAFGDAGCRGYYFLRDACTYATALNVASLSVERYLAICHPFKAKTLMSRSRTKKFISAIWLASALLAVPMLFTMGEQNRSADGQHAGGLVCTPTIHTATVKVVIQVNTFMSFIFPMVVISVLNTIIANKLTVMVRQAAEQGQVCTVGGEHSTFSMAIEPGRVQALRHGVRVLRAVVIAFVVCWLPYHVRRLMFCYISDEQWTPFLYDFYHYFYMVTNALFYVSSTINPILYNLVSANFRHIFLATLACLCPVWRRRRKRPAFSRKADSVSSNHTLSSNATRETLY

COc1cc2nc(C3CC3)nc(N3CCN(c4ccccc4OC)CC3)c2cc1OC [Compound 315, 2-cyclopropyl-6,7-dimethoxy-4-(4-(2-methoxyphenyl)piperazin-1-yl)quinazoline]
fraction unbound at 4 h, 1 μM ([1]; pH 7.4, 1 μM): 0.0033 | fraction unbound at 4 h, 10 μM ([1]; pH 7.4, 10 μM): 0.0116 | Plasma Stability (% Remaining at 3 hrs) ([2]; Human): 100% | plasma stability ([2]; species not stated): very high plasma stability | Hepatic Microsome Stability (% Remaining at 1 hr) [3]: 1.36% | metabolism in vitro with liver homogenates [3]: metabolized rapidly | activity across adrenergic receptors α1a, α1B, α1D, α2A [4]: 63-100% | NTR1 Ca2+ Flux assay activity [5]: not active

Source: US9868707B2, “Small molecule agonists of neurotensin receptor 1” (SANFORD-BURNHAM MEDICAL RESEARCH INSTITUTE, priority 2012, dated 2018)
